Tests used:
[1] = Hygroscopicity by dynamic vapor sorption (DVS); assay type: physicochemical; details: for solid form post DVS experiment: after sorption/desorption cycle up to 95% RH at 25° C.; for water absorbed (dynamic vapor sorption): up to 95% RH at 25° C.
Procedure: Hygroscopicity was studied using dynamic vapor sorption (DVS, TA Q5000 SA, TA Instruments, New Castle, DE or DVS, DVS Intrinsic, Surface Measurement Systems, London, UK). A sample (1-20 mg) was placed in an aluminum DVS pan and loaded on the sample side of the twin pan balance. The water sorption and desorption were studied as a function of relative humidity (RH) at 25° C. In 10% RH increments, the relative humidity was increased from 5% RH to 95% RH and then decreased back to 5%. […] Data analysis was performed using Universal Analysis 2000 Version 4.7A (TA Instruments, New Castle, DE) for TA DVS runs and Microsoft Excel for SMS DVS runs.

[2] = Physical form stability on drying under ambient conditions; assay type: physicochemical
Source text: Compound of Formula I, Form II is a metastable methanol solvated phase. It was isolated when compound of Formula I, Form I was slurried in methanol for about 60 days and identified by x-ray of the wet cake. […] Compound of Formula I, Form III was also made when Form II was dried under ambient conditions.

SMILES	solid form post DVS experiment [1]	water absorbed (dynamic vapor sorption) [1]	form conversion upon drying [2]
O=C(NCc1c(F)cc(F)cc1F)c1cn2c(c(O)c1=O)C(=O)N1CCCC[C@H]2C1 [Compound of Formula I, Form I, (7S)-12-hydroxy-1,11-dioxo-N-(2,4,6-trifluorobenzyl)-1,4,5,6,7,11-hexahydro-3H-2,7-methanopyrido[1,2-a][1,4]diazonine-10-carboxamide]	not have changed form	about 0.097%	
O=C(NCc1c(F)cc(F)cc1F)c1cn2c(c(O)c1=O)C(=O)N1CCCC[C@H]2C1 [Compound of Formula I, Form III, (7S)-12-hydroxy-1,11-dioxo-N-(2,4,6-trifluorobenzyl)-1,4,5,6,7,11-hexahydro-3H-2,7-methanopyrido[1,2-a][1,4]diazonine-10-carboxamide]	not have changed form	about 0.87%	
O=C(NCc1c(F)cc(F)cc1F)c1cn2c(c(O)c1=O)C(=O)N1CCCC[C@H]2C1 [Compound of Formula I, Form IV, (7S)-12-hydroxy-1,11-dioxo-N-(2,4,6-trifluorobenzyl)-1,4,5,6,7,11-hexahydro-3H-2,7-methanopyrido[1,2-a][1,4]diazonine-10-carboxamide]	not have changed form	about 3.5%	
O=C(NCc1c(F)cc(F)cc1F)c1cn2c(c(O)c1=O)C(=O)N1CCCC[C@H]2C1 [Compound of Formula I, Form II, (7S)-12-hydroxy-1,11-dioxo-N-(2,4,6-trifluorobenzyl)-1,4,5,6,7,11-hexahydro-3H-2,7-methanopyrido[1,2-a][1,4]diazonine-10-carboxamide]			convert to compound of Formula I, Form III

From US20250230163A1, “SOLID FORMS OF HIV INTEGRASE INHIBITORS” (Gilead Sciences, Inc., priority 2023, published 2025)
